Like-named read-outs stand apart in the source and are kept apart here.
Legend:
Format in all cases: in vivo
Cyperus iria [1] = assay: Field test with Bensulfuron methyl in direct seeded rice (Table 10); conditions: 10 = complete control
Text: (§1) Methyl 2-[[[[(4-methoxy-6-methyl-1,3,5-triazin-2-yl)amino]carbonyl]amino]sulfonyl]benzoate (Compound 1) and mixtures thereof with other compounds were applied as a spray (using a hand sprayer) to rice (either transplanted or direct seeded) in several rice growing areas in Southeast Asia and in the U.S. Tables 1-28 contain the results of these tests and clearly exemplify the utility of this invention. The details of each application are included in the appropriate table. [drawing 2]

Marsilea crenata = assay: as above; conditions: 10 = complete control
Text: as §1

Sphenoclea zeylanica [2] = assay: as above; conditions: 10 = complete control
Text: as §1

direct seeded rice [3] = assay: Field test with Bensulfuron methyl in direct seeded rice, yield (Table 10)
Text: as §1

direct seeded rice [4] = conditions: 4 GM.A.I./HA; for PHYTO at 2WAA: scale 0-10
Text: as §1

Cyperus difformis [5] = assay: Field test applied at 7 DAS in direct seeded rice (Table 11); conditions: 4 GM.A.I./HA, scale 0-10
Text: as §1

Sphenoclea zeylanica [6] = assay: as above; conditions: 4 GM.A.I./HA, scale 0-10
Text: as §1

Cyperus iria [7] = assay: Field test applied at 18 DAS in direct seeded rice (Table 12); conditions: 4 GM.A.I./HA, scale 0-10
Text: as §1

FIMBRISTYLIS MILIACEA [8] = assay: as above; conditions: 4 GM.A.I./HA, scale 0-10
Text: as §1

Jussiaea linifolia = assay: as above; conditions: 4 GM.A.I./HA, scale 0-10
Text: as §1

Sphenoclea zeylanica [9] = assay: as above; conditions: 4 GM.A.I./HA, scale 0-10
Text: as §1

Cyperus iria [10] = assay: Field test applied at 25 DAS in direct seeded rice (Table 13); conditions: 4 GM.A.I./HA, scale 0-10
Text: as §1

Sphenoclea zeylanica [11] = assay: as above; conditions: 4 GM.A.I./HA, scale 0-10
Text: as §1

direct seeded rice [12] = assay: Field test applied 7 DAS in direct seeded rice in the Philippines, phytotoxicity (Table 14); conditions: 30 DAA
Text: as §1

WEED [13] = assay: Field test applied 7 DAS in direct seeded rice in the Philippines, weed cover (Table 14); conditions: 47 DAA
Text: as §1

[14] = system: Barnyardgrass (Echinochloa crus-galli); assay: Field test applied 7 DAS in direct seeded rice in the Philippines, cover (Table 14); conditions: 47 DAA
Text: as §1

SEDGE = assay: as above; conditions: 47 DAA
Text: as §1

Cyperus difformis [15] = assay: Herbicidal efficacy with Bensulfuron methyl and 2,4-D in Thailand (Table 18); conditions: 4 GAI/HA; 13 days after treatment
Text: as §1

Sphenoclea zeylanica [16] = assay: as above; conditions: 4 GAI/HA; 13 days after treatment
Text: as §1

rice [17] = assay: as above; conditions: 4 GAI/HA; 13 days after treatment
Text: as §1

Cuperus difformis = assay: Herbicidal efficacy with Bensulfuron methyl and 2,4-D in Thailand (Table 19); conditions: 4 GAI/HA; 13 days after treatment
Text: as §1

Sphenoclea zeylanica [18] = assay: as above; conditions: 4 GAI/HA; 13 days after treatment
Text: as §1

rice [19] = assay: as above; conditions: 4 GAI/HA; 13 days after treatment
Text: as §1

Cuperus iria = assay: Herbicidal efficacy with Bensulfuron methyl and 2,4-D in Thailand (Table 20); conditions: 4 GAI/HA; 14 days after treatment
Text: as §1

FIMBRISTYLIS MILIACEA [20] = assay: as above; conditions: 4 GAI/HA; 14 days after treatment
Text: as §1

Ludwigia linifolia = assay: as above; conditions: 4 GAI/HA; 14 days after treatment
Text: as §1

Sphenoclea zeylanica [21] = assay: as above; conditions: 4 GAI/HA; 14 days after treatment
Text: as §1

rice [22] = assay: as above; conditions: 4 GAI/HA; 14 days after treatment
Text: as §1

rice [23] = assay: Effects in combination with Bensulfuron Methyl and Thiobencarb or Pretilachlor on rice growth (Table 23); conditions: rate 2 g ai/ha; var. Koshihikari, applied 7 days after transplanting, rated 21 days after application
Text: as §1

WEED [24] = assay: Effects in combination with Bensulfuron Methyl and Thiobencarb or Pretilachlor on weed control (Table 24); conditions: rate 2 g ai/ha, scale 0 to 10, treated at 1.0 leaf stage, evaluated four weeks later
Text: as §1

WEED [25] = assay: Effects in combination with Bensulfuron Methyl and Thiobencarb or Pretilachlor on weed control (Table 25); conditions: rate 2 g ai/ha, scale 0 to 10, treated at 2.0 leaf stage, evaluated four weeks later
Text: as §1

`COC(=O)c1ccccc1S(=O)(=O)NC(=O)Nc1nc(C)nc(OC)n1` [Compound 1, Methyl 2-[[[[(4-methoxy-6-methyl-1,3,5-triazin-2-yl)amino]carbonyl]amino]sulfonyl]benzoate] was tested, and the “WEEDS CONTROL at 4 WAA CI” value (Cyperus iria [1]; 2 GAI/HA) was 0, the “WEEDS CONTROL at 4 WAA CI” value (Cyperus iria [1]; 4 GAI/HA) was 0 and the “WEEDS CONTROL at 4 WAA MC” value (Marsilea crenata; 2 GAI/HA) was 10. The “WEEDS CONTROL at 4 WAA MC” value (Marsilea crenata; 4 GAI/HA) was 10, the “WEEDS CONTROL at 4 WAA SZ” value (Sphenoclea zeylanica [2]; 2 GAI/HA) was 7.93 and the “WEEDS CONTROL at 4 WAA SZ” value (Sphenoclea zeylanica [2]; 4 GAI/HA) was 9.33. For the same compound, the YIELD (direct seeded rice [3]; 2 GAI/HA) was 3.62 TONS/HA, the YIELD (direct seeded rice [3]; 4 GAI/HA) was 3.62 TONS/HA and the YIELD (direct seeded rice [4]; 7 DAS) was 4.90 TONS/HA. For the same compound, the “PHYTO at 2WAA” value (direct seeded rice [4]; 7 DAS) was 0, the YIELD (direct seeded rice [4]; 18 DAS) was 4.65 TONS/HA and the “PHYTO at 2WAA” value (direct seeded rice [4]; 18 DAS) was 0. For the same compound, the YIELD (direct seeded rice [4]; 25 DAS) was 5.04 TONS/HA, the “PHYTO at 2WAA” value (direct seeded rice [4]; 25 DAS) was 0 and the “WEED CONTROL at 6 WAA CD” value (Cyperus difformis [5]) was 10. The “WEED CONTROL at 6 WAA SZ” value (Sphenoclea zeylanica [6]) was 10, the “WEED CONTROL at 6 WAA CI” value (Cyperus iria [7]) was 0.33 and the “WEED CONTROL at 6 WAA FM” value (FIMBRISTYLIS MILIACEA [8]) was 0. The “WEED CONTROL at 6 WAA JL” value (Jussiaea linifolia) was 7.67, the “WEED CONTROL at 6 WAA SZ” value (Sphenoclea zeylanica [9]) was 6.33 and the “WEED CONTROL at 6 WAA CI” value (Cyperus iria [10]) was 0. The “WEED CONTROL at 6 WAA SZ” value (Sphenoclea zeylanica [11]) was 9.53, the “PHYTO (1-9)” value (direct seeded rice [12]; 1.65 G AI/HA) was 2 and the “PHYTO (1-9)” value (direct seeded rice [12]; 2.40 G AI/HA) was 2.3. For the same compound, the “PHYTO (1-9)” value (direct seeded rice [12]; 3.33 G AI/HA) was 3.3, the “% WEED COVER” value (WEED [13]; 1.65 G AI/HA) was 29% and the “% WEED COVER” value (WEED [13]; 2.40 G AI/HA) was 35%. The “% WEED COVER” value (WEED [13]; 3.33 G AI/HA) was 35%, the “% BYG COVER” value ([14]; 1.65 G AI/HA) was 26% and the “% BYG COVER” value ([14]; 2.40 G AI/HA) was 35%. The “% BYG COVER” value ([14]; 3.33 G AI/HA) was 35%, the “% SEDGE COVER” value (SEDGE; 1.65 G AI/HA) was 5% and the “% SEDGE COVER” value (SEDGE; 2.40 G AI/HA) was 6%. For the same compound, the “% SEDGE COVER” value (SEDGE; 3.33 G AI/HA) was 4%, the “% CONTROL OR INJURY CD” value (Cyperus difformis [15]) was 100% and the “% CONTROL OR INJURY SZ” value (Sphenoclea zeylanica [16]) was 98%. The “% CONTROL OR INJURY RICE” value (rice [17]) was 0%, the “% CONTROL OR INJURY CD” value (Cuperus difformis) was 100% and the “% CONTROL OR INJURY SZ” value (Sphenoclea zeylanica [18]) was 93%. For the same compound, the “% CONTROL OR INJURY RICE” value (rice [19]) was 0%, the “% CONTROL OR INJURY CI” value (Cuperus iria) was 0% and the “% CONTROL OR INJURY FM” value (FIMBRISTYLIS MILIACEA [20]) was 0%. For the same compound, the “% CONTROL OR INJURY LL” value (Ludwigia linifolia) was 67%, the “% CONTROL OR INJURY SZ” value (Sphenoclea zeylanica [21]) was 60% and the “% CONTROL OR INJURY RICE” value (rice [22]) was 0%. For the same compound, the “CROP TOLERANCE DW (Dry weight relative to untreated check)” value (rice [23]) was 73%, the “CROP TOLERANCE PH (Plant height relative to untreated check)” value (rice [23]) was 86% and the “CROP TOLERANCE VA (Visual crop injury)” value (rice [23]) was 3%. For the same compound, the “WEED CONTROL RATINGS CD” value (WEED [24]; Cyperus difformis) was 10, the “WEED CONTROL RATINGS CS” value (WEED [24]; Cyperus serotinus) was 1 and the “WEED CONTROL RATINGS EO” value (WEED [24]; Echinochloa oryzicola) was 1. The “WEED CONTROL RATINGS BL” value (WEED [24]; Lindernia pyxidaria) was 10, the “WEED CONTROL RATINGS MV” value (WEED [24]; Monochoria vaginalis) was 10 and the “WEED CONTROL RATINGS SP” value (WEED [24]; Sagittaria pygmaea) was 8. For the same compound, the “WEED CONTROL RATINGS SJ” value (WEED [24]; Scirpus juncoides) was 7, the “WEED CONTROL RATINGS CD” value (WEED [25]; Cyperus difformis) was 7 and the “WEED CONTROL RATINGS CS” value (WEED [25]; Cyperus serotinus) was 0. The “WEED CONTROL RATINGS EO” value (WEED [25]; Echinochloa oryzicola) was 1, the “WEED CONTROL RATINGS BL” value (WEED [25]; Lindernia pyxidaria) was 10 and the “WEED CONTROL RATINGS MV” value (WEED [25]; Monochoria vaginalis) was 10. For the same compound, the “WEED CONTROL RATINGS SP” value (WEED [25]; Sagittaria pygmaea) was 8 and the “WEED CONTROL RATINGS SJ” value (WEED [25]; Scirpus juncoides) was 6.

From patent EP0377642B1, “HERBICIDES FOR WEED CONTROL IN RICE” (E.I. DU PONT DE NEMOURS AND COMPANY, priority 1987, dated 1989)
